Patent EP4755888A1 (ILAb Co., Ltd., priority 2023, dated 2025)
Read-outs that look alike come from different tables or passages of the source.

Assays:
[1] = target: T1, PD-L1 expressed on the cell surface (MC38 hPD-L1) (Homo sapiens, UniProt Q9NZQ7); experiment: Internalization of cell surface PD-L1, flow cytometry with fluorescent staining; type: cell-based; conditions: MC38 hPD-L1 cells, 1 µM, 4 hours; untreated 90% to 99%
T1 construct: expressed in transfected cells; host or cells: MC38 mouse colon cancer cell line expressing human PD-L1
Experimental: In order to evaluate the internalization of cell surface PD-L1 induced by the compounds of the present invention synthesized according to the above Preparation Examples, a flow cytometry experiment using fluorescent staining was conducted as described below.
Specifically, a mouse colon cancer cell line expressing human PD-L1 (MC38 hPD-L1) was seeded into a 24-well plate at a density of 5 x 10^5 cells per well, followed by treatment with Compounds 206 to 227 at a concentration of 1 µM and incubation for 4 hours. After 4 hours, the compound-treated MC38 hPD-L1 cells were collected and stained with PE anti-hPD-L1 fluorecence at room temperature for 30 minutes. The rate of PD-L1 expression on the cell surface was then quantified using flow cytometry.

PD-1/PD-L1 [2] = experiment: PD-1/PD-L1 blockade bioassay at the cellular level (PD-L1 aAPC/CHO-K1 cells + PD-1 Effector T cells, luciferase); type: cell-based; conditions: Homo sapiens, T-cell; PD-L1 aAPC/CHO-K1 cells with PD-1 Effector T cells, 6 hours, luminescence; read-out: PD-1/PD-L1 Inhibitory Activity EC50
Experimental: In order to evaluate the effect of the compounds of the present invention, synthesized according to the above Preparation Examples, on blocking signal transduction between PD-1/PD-L1-expressing cells, a PD-1/PD-L1 blockade bioassay was conducted as described below.
Specifically, PD-L1 aAPC/CHO-K1 cells engineered to express human PD-L1 were seeded into a 96-well white plate and cultured for one day. On the following day, the compounds were prepared in a 96-well plate by serial dilution at concentrations starting from 10 µM and 5 µM, followed by 1/4 dilutions to obtain a total of ten concentrations. The culture medium in the plate seeded with the PD-L1 aAPC/CHO-K1 cell line was removed, and 40 µL of each prepared compound solution was added to a 96-well plate. Thereafter, 40 µL of PD-1 Effector T cell line engineered to express human PD-1 was additionally added, and then cultured for 6 hours. After 6 hours, 80 µL of Bio-Glo luciferase buffer was added to each well, followed by incubation at room temperature for 10 minutes, and luminescence was measured using a microplate reader.

PD-1/PD-L1 [3] = target: PD-1/PD-L1 (Homo sapiens, UniProt Q9NZQ7); experiment: TR-FRET PD-1/PD-L1 binding inhibition at the molecular level (free proteins)
Procedure, shortened: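 HTRF read-out at 665/620 nm after 2 h at room temperature. Detection used anti-Tag1 Eu cryptate plus anti-Tag2 XL665 antibodies. Tagged PD-L1 and PD-1 proteins were pre-mixed with compound across twelve […] 1:2 dilutions starting at 200 nM.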

hPD-L1 = hPD-L1 (Homo sapiens, UniProt Q9NZQ7); experiment: TR-FRET dimerization of hPD-L1 molecules; type: biochemical; conditions: for EC50: Fc tag-hPD-L1 and His tag-hPD-L1, twelve concentrations from 10 µM; for induction of dimerization of hPD-L1 molecules (in words): summary of Table 3
Experimental: In order to evaluate the dimerization of hPD-L1 molecules induced by the compounds of the present invention synthesized according to the above Preparation Examples, a TR-FRET (Time-Resolved Fluorescence Energy Transfer) experiment was performed as described below.
Specifically, the compounds were prepared in a 96-well plate by serial dilution starting from 10 µM with 1/3 dilutions to obtain a total of twelve concentrations. Thereafter, 2 µL of each compound solution was added to a 384-well plate. Fc tag-hPD-L1 protein and His tag-hPD-L1 protein were each prepared at a 1x concentration, mixed at a ratio of 1:1 of above two proteins, and 8 µL of the mixed protein solution was added to each well of the 384-well plate containing the compounds, followed by incubation at room temperature for one day. On the following day, Anti-6His-Tb Cryptate Gold antibody and Anti-human IgG-XL665 antibody were each prepared at a 1x concentration, mixed at a ratio of 1:1, and 10 µL of the mixed antibody solution was added to each well of the 384-well plate containing the compounds and proteins, followed by incubation at room temperature for 2 hours. Upon completion of the reaction, fluorescence signals at wavelengths of 620 nm and 665 nm were measured using a microplate reader.

[4] = Tag1-PD-L1 and Tag2-PD-1 proteins, twelve concentrations from 200 nM, 2 hours at room temperature, read-out: FRET assay (IC50)

PD-1/PD-L1 (Homo sapiens, UniProt Q9NZQ7), sequence (Q9NZQ7 19-238 limits assumed): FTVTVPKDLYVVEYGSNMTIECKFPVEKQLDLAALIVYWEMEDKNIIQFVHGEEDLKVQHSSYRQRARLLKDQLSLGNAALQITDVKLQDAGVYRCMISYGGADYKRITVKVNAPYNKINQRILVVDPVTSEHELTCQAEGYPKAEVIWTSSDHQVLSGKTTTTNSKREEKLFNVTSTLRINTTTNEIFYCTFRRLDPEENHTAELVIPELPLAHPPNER
hPD-L1, sequence (Q9NZQ7 19-238 limits assumed): as above
hPD-L1, sequence (Q9NZQ7 19-238 limits assumed): as above
T1 sequence (Q9NZQ7 19-290): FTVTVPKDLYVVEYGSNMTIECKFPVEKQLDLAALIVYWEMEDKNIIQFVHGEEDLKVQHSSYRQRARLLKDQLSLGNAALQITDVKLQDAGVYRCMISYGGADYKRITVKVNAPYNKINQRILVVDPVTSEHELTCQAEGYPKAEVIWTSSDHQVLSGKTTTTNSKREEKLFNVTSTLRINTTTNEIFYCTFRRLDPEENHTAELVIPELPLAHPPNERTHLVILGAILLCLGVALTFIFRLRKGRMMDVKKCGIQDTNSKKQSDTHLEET

Compound | Cell surface PD-L1 expression level (%) [1] [%] | EC50 (PD-1/PD-L1 [2]) [nM] | IC50 (PD-1/PD-L1 [3]; [4]) [nM] | EC50 (hPD-L1) [nM] | induction of dimerization of hPD-L1 molecules (in words) (hPD-L1) | IC50 (PD-1/PD-L1 [3]; read-out: FRET assay (IC50), Tag1-PD-L1 and Tag2-PD-1 proteins, twelve concentrations from 200 nM, 2 hours at room temperature) [nM]
O=C(Nc1cccc(-c2cccc(NC(=O)c3cc4n(n3)CCC[C@@H]4NCCO)c2Cl)c1Cl)c1ccc(CNCCO)cn1 [Compound 206, (S)-N-(2,2'-dichloro-3'-(5-(((2-hydroxyethyl)amino)methyl)picolinamido)-[1,1'-biphenyl]-3-yl)-4-((2-hydroxyethyl)amino)-4,5,6,7-tetrahydropyrazolo[1,5-a]pyridine-2-carboxamide] | 0.9 | 15.7 | < 10 | – | – | –
O=C(Nc1cccc(-c2cccc(NC(=O)c3cc4n(n3)CCC[C@H]4NCCO)c2Cl)c1Cl)c1ccc(CNCCO)cn1 [Compound 207, (R)-N-(2,2'-dichloro-3'-(5-(((2-hydroxyethyl)amino)methyl)picolinamido)-[1,1'-biphenyl]-3-yl)-4-((2-hydroxyethyl)amino)-4,5,6,7-tetrahydropyrazolo[1,5-a]pyridine-2-carboxamide] | 77.5 | 85.8 | < 10 | – | – | –
O=C(Nc1cccc(-c2cccc(NC(=O)c3cc4n(n3)CCC[C@@H]4N3CC[C@@H](C(=O)O)C3)c2Cl)c1Cl)c1ccc(CNCCO)cn1 [Compound 208, (R)-1-((S)-2-((2,2'-dichloro-3'-(5-(((2-hydroxyethyl)amino)methyl)picolinamido)-[1,1'-biphenyl]-3-yl)carbamoyl)-4,5,6,7-tetrahydropyrazolo[1,5-a]pyridin-4-yl)pyrrolidine-3-carboxylic acid] | 0.5 | 12.6 | < 10 | – | – | –
Cc1c(NC(=O)c2cc3n(n2)CCC[C@@H]3N2CC[C@@H](C(=O)O)C2)cccc1-c1cccc(Nc2nc(C(F)F)nc3cc(CN4CC[C@@H](O)C4)cnc23)c1C [Compound 210, (R)-1-((S)-2-((3'-((2-(difluoromethyl)-7-(((R)-3-hydroxypyrrolidin-1-yl)methyl)pyrido[3,2-d]pyrimidin-4-yl)amino)-2,2'-dimethyl-[1,1'-biphenyl]-3-yl)carbamoyl)-4,5,6,7-tetrahydropyrazolo[1,5-a]pyridin-4-yl)pyrrolidine-3-carboxylic acid] | 3.2 | 16 | < 10 | – | – | –
Cc1c(NC(=O)c2cc3n(n2)CCC[C@@H]3NCC(=O)O)cccc1-c1cccc(Nc2nc(C(F)F)nc3cc(CN4CC[C@@H](O)C4)cnc23)c1C [Compound 212, 2-(((S)-2-((3'-((2-(difluoromethyl)-7-(((R)-3-hydroxypyrrolidin-1-yl)methyl)pyrido[3,2-d]pyrimidin-4-yl)amino)-2,2'-dimethyl-[1,1'-biphenyl]-3-yl)carbamoyl)-4,5,6,7-tetrahydropyrazolo[1,5-a]pyridin-4-yl)amino)acetic acid] | 22.1 | 32.3 | < 10 | – | – | –
Cc1c(NC(=O)c2ccc(CN3CC[C@@H](O)C3)cn2)cccc1-c1cccc(NC(=O)c2cc3n(n2)CCC[C@@H]3NCCO)c1C [Compound 214, (S)-4-((2-hydroxyethyl)amino)-N-(3'-(5-(((R)-3-hydroxypyrrolidin-1-yl)methyl)picolinamido)-2,2'-dimethyl-[1,1'-biphenyl]-3-yl)-4,5,6,7-tetrahydropyrazolo[1,5-a]pyridine-2-carboxamide] | 5.7 | 40.1 | < 10 | – | – | –
Cc1c(NC(=O)c2ccc(CN3CC[C@@H](O)C3)cn2)cccc1-c1cccc(NC(=O)c2cc3n(n2)CCC[C@@H]3N2CC[C@@H](O)C2)c1C [Compound 216, (S)-4-((R)-3-hydroxypyrrolidin-1-yl)-N-(3'-(5-(((R)-3-hydroxypyrrolidin-1-yl)methyl)picolinamido)-2,2'-dimethyl-[1,1'-biphenyl]-3-yl)-4,5,6,7-tetrahydropyrazolo[1,5-a]pyridine-2-carboxamide] | 3.0 | 31.6 | < 10 | 25.2 | effectively induced dimerization of hPD-L1 molecules at the nanomolar level | –
Cc1c(NC(=O)c2ccc(CN3CC[C@@H](O)C3)cn2)cccc1-c1cccc(NC(=O)c2cc3n(n2)CCC[C@H]3N2CC[C@@H](O)C2)c1C [Compound 217] | 82.8 | 251 | – | – | – | < 10
O=C(O)CN[C@H]1CCCn2nc(C(=O)Nc3cccc(-c4cccc(NC(=O)c5ccc(CNCCO)cn5)c4Cl)c3Cl)cc21 [Compound 220, (S)-2-((2-((2,2'-dichloro-3'-(5-(((2-hydroxyethyl)amino)methyl)picolinamido)-[1,1'-biphenyl]-3-yl)carbamoyl)-4,5,6,7-tetrahydropyrazolo[1,5-a]pyridin-4-yl)amino)acetic acid] | 0.6 | 13.6 | < 10 | – | – | –
O=C(O)CN[C@H]1CCCn2nc(C(=O)Nc3cccc(-c4cccc(NC(=O)c5ccc(CN6CC[C@@H](O)C6)cn5)c4Cl)c3Cl)cc21 [Compound 222, 2-(((S)-2-((2,2'-dichloro-3'-(5-(((R)-3-hydroxypyrrolidin-1-yl)methyl)picolinamido)-[1,1'-biphenyl]-3-yl)carbamoyl)-4,5,6,7-tetrahydropyrazolo[1,5-a]pyridin-4-yl)amino)acetic acid] | 0.3 | 34.8 | < 10 | – | – | –
O=C(Nc1cccc(-c2cccc(Nc3nccc4cc(CN5CC[C@H](O)C5)cnc34)c2Cl)c1Cl)c1cc2n(n1)CCC[C@H]2N1CCC(C(=O)O)CC1 [Compound 227, 1-((R)-2-((2,2'-dichloro-3'-((3-(((S)-3-hydroxypyrrolidin-1-yl)methyl)-1,7-naphthyridin-8-yl)amino)-[1,1'-biphenyl]-3-yl)carbamoyl)-4,5,6,7-tetrahydropyrazolo[1,5-a]pyridin-4-yl)piperidine-4-carboxylic acid] | 1.6 | 20.2 | 10 to 100 | 26.2 | effectively induced dimerization of hPD-L1 molecules at the nanomolar level | –
